Measurements reported in PubChem BioAssay (NCI).
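Cells were grown in 96-well plates and exposed to each compound for 48 hours at five concentrations; endpoints were interpolated linearly between bracketing concentrations, or set to the highest concentration if not reached. GI50 marks 50% less growth. TGI: total growth inhibition.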

Experiments:
Assay in all cases: growth of human tumour cells (NCI), 48 h
[1] = tested on: NCI/ADR-RES ovarian
[2] = tested on: OVCAR-3 ovarian
[3] = tested on: M14 melanoma
[4] = tested on: HCT-15 colon
[5] = tested on: SK-MEL-5 melanoma
[6] = tested on: 786-0 renal
[7] = tested on: HCT-116 colon
[8] = tested on: MALME-3M melanoma
[9] = tested on: U251 CNS
[10] = tested on: EKVX NSCLC
[11] = tested on: OVCAR-5 ovarian
[12] = tested on: KM12 colon
[13] = tested on: TK-10 renal
[14] = tested on: RXF 393 renal
[15] = tested on: K-562 leukemia
[16] = tested on: MDA-MB-231 breast
[17] = tested on: OVCAR-8 ovarian
[18] = tested on: HT29 colon
[19] = tested on: UO-31 renal
[20] = tested on: LOX IMVI melanoma
[21] = tested on: A549 NSCLC
[22] = tested on: SF-268 CNS
[23] = tested on: PC-3 prostate
[24] = tested on: UACC-257 melanoma
[25] = tested on: RPMI-8226 leukemia
[26] = tested on: HL-60(TB) leukemia
[27] = tested on: SK-MEL-28 melanoma
[28] = tested on: OVCAR-4 ovarian
[29] = tested on: SNB-75 CNS
[30] = tested on: HS 578T breast
[31] = tested on: SR leukemia
[32] = tested on: MDA-MB-435
[33] = tested on: BT-549 breast
[34] = tested on: ACHN renal
[35] = tested on: HCC-2998 colon
[36] = tested on: SK-MEL-2 melanoma
[37] = tested on: CAKI-1 renal
[38] = tested on: NCI-H460 lung
[39] = tested on: NCI-H226 lung
[40] = tested on: HOP-62 NSCLC
[41] = tested on: CCRF-CEM leukemia
[42] = tested on: MCF7 breast
[43] = tested on: T-47D breast
[44] = tested on: A498 renal
[45] = tested on: HOP-92 NSCLC
[46] = tested on: NCI-H522 lung
[47] = tested on: COLO 205 colon
[48] = tested on: SF-295 CNS
[49] = tested on: IGROV1 ovarian
[50] = tested on: SNB-19 CNS
[51] = tested on: MOLT-4 leukemia
[52] = tested on: SW-620 colon
[53] = tested on: SK-OV-3 ovarian
[54] = tested on: DU-145 prostate
[55] = tested on: SN12C renal
[56] = tested on: SF-539 CNS
[57] = tested on: UACC-62 melanoma
[58] = tested on: NCI-H23 lung

O=C(N/N=C/c1ccc(Cl)s1)c1[nH]c2ccc(Br)cc2c1-c1ccccc1
GI50 [1]: 144 nM
GI50 [2]: 321 nM
TGI [2]: 4180 nM
GI50 [3]: 318 nM
TGI [3]: > 100000 nM
GI50 [4]: 277 nM
GI50 [5]: 284 nM
TGI [5]: 878 nM
GI50 [6]: 418 nM
TGI [6]: > 41500 nM
GI50 [7]: 231 nM
TGI [7]: 7060 nM
GI50 [8]: 489 nM
TGI [8]: > 74400 nM
GI50 [9]: 322 nM
TGI [9]: 18200 nM
GI50 [10]: 1180 nM
TGI [10]: > 100000 nM
GI50 [11]: 424 nM
TGI [11]: > 100000 nM
GI50 [12]: 402 nM
TGI [12]: 27900 nM
GI50 [13]: 4190 nM
TGI [13]: > 100000 nM
GI50 [14]: 547 nM
TGI [14]: 5010 nM
GI50 [15]: 235 nM
TGI [15]: > 73800 nM
GI50 [16]: 290 nM
TGI [16]: 3090 nM
GI50 [17]: 214 nM
TGI [17]: 714 nM
GI50 [18]: 319 nM
TGI [18]: 10700 nM
GI50 [19]: 520 nM
TGI [19]: > 100000 nM
GI50 [20]: 308 nM
TGI [20]: 1350 nM
GI50 [21]: 376 nM
TGI [21]: > 48200 nM
GI50 [22]: 574 nM
TGI [22]: > 100000 nM
GI50 [23]: 450 nM
TGI [23]: > 100000 nM
GI50 [24]: 508 nM
TGI [24]: > 100000 nM
GI50 [25]: 356 nM
TGI [25]: > 52500 nM
GI50 [26]: 226 nM
TGI [26]: 612 nM
GI50 [27]: 627 nM
TGI [27]: > 100000 nM
GI50 [28]: 594 nM
TGI [28]: 69800 nM
GI50 [29]: 259 nM
TGI [29]: 3450 nM
GI50 [30]: 496 nM
TGI [30]: 34900 nM
GI50 [31]: 290 nM
TGI [31]: 27600 nM
GI50 [32]: 196 nM
TGI [32]: 384 nM
GI50 [33]: 274 nM
TGI [33]: 765 nM
GI50 [34]: 361 nM
TGI [34]: > 61500 nM
GI50 [35]: 453 nM
TGI [35]: 46000 nM
GI50 [36]: 325 nM
TGI [36]: 21000 nM
GI50 [37]: 450 nM
TGI [37]: 47000 nM
GI50 [38]: 335 nM
TGI [38]: 3270 nM
GI50 [39]: 313 nM
TGI [39]: 6930 nM
GI50 [40]: 766 nM
TGI [40]: 41600 nM
GI50 [41]: 354 nM
TGI [41]: > 86400 nM
GI50 [42]: 266 nM
TGI [42]: 4210 nM
GI50 [43]: 2310 nM
TGI [43]: > 86800 nM
GI50 [44]: 28300 nM
TGI [44]: > 100000 nM
GI50 [45]: 1370 nM
TGI [45]: 68300 nM
GI50 [46]: 71.9 nM
TGI [46]: 242 nM
GI50 [47]: 488 nM
TGI [47]: 1680 nM
GI50 [48]: 275 nM
TGI [48]: 3220 nM
GI50 [49]: 386 nM
TGI [49]: 21400 nM
GI50 [50]: 331 nM
TGI [50]: > 90200 nM
GI50 [51]: 330 nM
TGI [51]: > 21400 nM
GI50 [52]: 375 nM
TGI [52]: > 100000 nM
GI50 [53]: 409 nM
TGI [53]: 91200 nM
GI50 [54]: 346 nM
TGI [54]: 34100 nM
GI50 [55]: 350 nM
TGI [55]: 32900 nM
GI50 [56]: 122 nM
TGI [56]: 429 nM
GI50 [57]: 334 nM
TGI [57]: 25900 nM
GI50 [58]: 426 nM
TGI [58]: 38800 nM
